Laboratory results reported in ChEMBL document CHEMBL5550215, “Discovery of Novel Imidazo[1,2-a]pyridine-Based HDAC6 Inhibitors as an Anticarcinogen with a Cardioprotective Effect” (J Med Chem, 2024).
Active and inactive are the calls of the source. No cut-off for these calls is given here.

What was measured:
H9c2 [1] = experiment: Protection against H2O2 induced myocardial cell injury in rat H9c2 cells assessed as fold change at 10 uM pretreated for 24 hrs followed by H2O2 exposure and measured after 1.5 hrs relative to H2O2 alone; format: functional; conditions: time 25.5 hrs
H9c2 [2] = experiment: Protection against H2O2 induced myocardial cell injury in rat H9c2 cells at 5 uM pretreated for 24 hrs followed by H2O2 exposure and measured after 1.5 hrs (reference value: 41.79+/-1.59%); format: functional; conditions: time 25.5 hrs
H9c2 [3] = experiment: Protection against H2O2 induced myocardial cell injury in rat H9c2 cells assessed as fold change at 5 uM pretreated for 24 hrs followed by H2O2 exposure and measured after 1.5 hrs relative to H2O2 alone; format: functional; conditions: time 25.5 hrs
H9c2 [4] = experiment: Protection against H2O2 induced myocardial cell injury in rat H9c2 cells at 10 uM pretreated for 24 hrs followed by H2O2 exposure and measured after 1.5 hrs (reference value: 17.91 to 57.32%); format: functional; conditions: time 25.5 hrs
[5] = target: T1, Protein deacetylase HDAC6 (Homo sapiens) (UniProt Q9UBN7); conditions: dose 100.0 nM
T1 sequence (whole entry): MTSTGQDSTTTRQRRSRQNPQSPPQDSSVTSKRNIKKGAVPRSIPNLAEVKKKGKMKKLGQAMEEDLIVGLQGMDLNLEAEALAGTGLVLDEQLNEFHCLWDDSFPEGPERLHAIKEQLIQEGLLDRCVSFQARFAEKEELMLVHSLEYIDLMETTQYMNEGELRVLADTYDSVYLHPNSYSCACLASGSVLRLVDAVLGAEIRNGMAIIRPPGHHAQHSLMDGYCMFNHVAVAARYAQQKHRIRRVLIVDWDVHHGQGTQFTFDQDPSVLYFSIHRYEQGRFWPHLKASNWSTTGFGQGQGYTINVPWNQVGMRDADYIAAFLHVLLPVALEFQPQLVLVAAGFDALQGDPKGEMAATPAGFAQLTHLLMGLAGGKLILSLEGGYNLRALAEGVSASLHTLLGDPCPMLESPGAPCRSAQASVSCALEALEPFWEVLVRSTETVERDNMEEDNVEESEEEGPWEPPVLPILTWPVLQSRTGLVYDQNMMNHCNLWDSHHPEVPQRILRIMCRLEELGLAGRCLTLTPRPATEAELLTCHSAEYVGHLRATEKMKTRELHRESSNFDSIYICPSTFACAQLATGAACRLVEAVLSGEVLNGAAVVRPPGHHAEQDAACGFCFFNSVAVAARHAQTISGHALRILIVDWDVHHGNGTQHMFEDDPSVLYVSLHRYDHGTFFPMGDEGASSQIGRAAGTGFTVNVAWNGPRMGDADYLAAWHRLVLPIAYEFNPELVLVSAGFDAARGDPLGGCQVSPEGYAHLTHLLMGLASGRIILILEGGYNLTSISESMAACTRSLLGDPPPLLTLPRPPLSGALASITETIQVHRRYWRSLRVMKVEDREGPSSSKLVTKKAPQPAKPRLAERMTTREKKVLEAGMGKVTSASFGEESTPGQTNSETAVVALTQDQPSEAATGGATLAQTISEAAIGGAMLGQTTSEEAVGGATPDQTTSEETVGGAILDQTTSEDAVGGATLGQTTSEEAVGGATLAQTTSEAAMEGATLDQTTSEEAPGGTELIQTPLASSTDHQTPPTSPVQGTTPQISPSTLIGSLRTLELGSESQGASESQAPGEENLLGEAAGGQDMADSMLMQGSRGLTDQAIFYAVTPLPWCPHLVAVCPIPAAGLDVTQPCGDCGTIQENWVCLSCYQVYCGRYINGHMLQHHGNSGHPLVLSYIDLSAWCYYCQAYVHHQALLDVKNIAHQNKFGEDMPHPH
Description: Inhibition of HDAC6 (unknown origin) at 100 nM relative to control

Mus musculus [6] = experiment: Cardioprotective activity against myocardial ischemia/reperfusion induced C57BL/6J mouse model assessed as effect on infarct size of mouse heart at 10 mg/kg by TTC staining based analysis; format: functional, organism-based
Mus musculus [7] = experiment: Cardioprotective activity against myocardial ischemia/reperfusion induced C57BL/6J mouse model assessed as reduction in ST-segment elevation at 10 mg/kg; format: functional, organism-based
TE-1 = experiment: Antiproliferative activity against human TE-1 cells assessed as inhibition of cell growth by MTT assay
NCI-H460 = experiment: Antiproliferative activity against human NCI-H460 cells assessed as inhibition of cell growth by MTT assay
HCT-116 = experiment: Antiproliferative activity against human HCT-116 cells assessed as inhibition of cell growth by MTT assay
SMMC-7721 = experiment: Antiproliferative activity against human SMMC-7721 cells assessed as inhibition of cell growth by MTT assay
MGC-803 = experiment: Antiproliferative activity against human MGC-803 cells assessed as inhibition of cell growth by MTT assay
PANC-1 = experiment: Antiproliferative activity against human PANC-1 cells assessed as inhibition of cell growth by MTT assay
PC-3 = experiment: Antiproliferative activity against human PC-3 cells assessed as inhibition of cell growth by MTT assay

Row | Compound | fold change (FC) (H9c2 [1]) | Activity (H9c2 [2]) [%] | fold change (FC) (H9c2 [3]) | Activity (H9c2 [4]) [%] | inhibition [5] [%] | Activity (Mus musculus [6]) | Activity (Mus musculus [7]) | IC50 (TE-1) [µM] | IC50 (NCI-H460) [µM] | IC50 (HCT-116) [µM] | IC50 (SMMC-7721) [µM] | IC50 (MGC-803) [µM] | IC50 (PANC-1) [µM] | IC50 (PC-3) [µM]
1 | O=c1cc(-c2ccc(O)c(O)c2)oc2cc(O)cc(O)c12 [LUTEOLIN] | 2.53 | 86.37 | 2.07 | 91.43 | 1 | – | – | – | – | – | – | – | – | –
2 | O=C(CCCCCCC(=O)Nc1ccccc1)NO [VORINOSTAT] | – | – | – | 71.54 | – | inactive | Active | 2.25 | – | – | – | – | – | –
3 | Cc1ccc(-c2cc(C(=O)NCc3ccc(C(=O)NO)cc3)c3nccn3c2)cc1 | – | 83.58 | – | 84.83 | – | – | – | 5.54 | > 10 | > 10 | 1.85 | 1.17 | 6.15 | > 10
4 | O=C(NO)c1ccc(NCc2cc(-c3cccc(Br)c3)cn3ccnc23)cc1 | – | – | – | 98.49 | – | – | – | 6.23 | 9.44 | > 10 | 3.18 | 5.07 | > 10 | > 10
